Measurements: ChEMBL document CHEMBL5726462, “Substituted quinolines as modulators of sodium channels” (2017)

Experiment: Electrophysiology Assays: Patch clamp electrophysiology was used to assess the efficacy and selectivity of sodium channel blockers in dorsal root ganglion neurons. Rat neurons were isolated from the dorsal root ganglions and maintained in culture for 2 to 10 days in the presence of NGF (50 ng/ml) (culture media consisted of NeurobasalA supplemented with B27, glutamine and antibiotics). Small diameter neurons (nociceptors, 8-12 μm in diameter) were visually identified and probed with fine tip glass electrodes connected to an amplifier (Axon Instruments). The voltage clamp mode was used to assess the compound's IC50 holding the cells at −60 mV. In addition, the current clamp mode was employed to test the efficacy of the compounds in blocking action potential generation in response to current injections. The results of these experiments contributed to the definition of the efficacy profile of the compounds.

| Compound | IC50 [µM] |
| --- | --- |
| COc1cc(F)ccc1Oc1nc2ccccc2nc1C(=O)Nc1nnn[nH]1 | 2.2 |
| O=C(O)c1ccc(NC(=O)c2cc3ccccc3nc2Oc2ccccc2OC(F)F)cc1 | 0.975 |
| O=C(O)c1ccc(NC(=O)c2cc3ccccc3nc2Oc2ccc(F)cc2Cl)cn1 | 0.096 |
| COc1ccc(Oc2nc3ccccc3cc2C(=O)Nc2ccc(C(=O)O)cc2)c(OC)c1 | 0.55 |
| Cc1cc(F)ccc1Oc1nc2ccccc2cc1C(=O)Nc1ccc(C(=O)O)cc1 | 0.315 |
| O=C(O)c1ccc(NC(=O)c2cc3ccccc3nc2Oc2ccc(F)cc2F)cc1 | 0.275 |
| O=C(O)c1ccc(NC(=O)c2cc3ccccc3nc2Oc2ccc(F)cc2F)cn1 | 0.255 |
| NS(=O)(=O)c1cccc(NC(=O)c2cc3ccccc3nc2Oc2ccccc2OC(F)F)c1 | 0.024 |
